We go through 1 compound from PMC4943339 (Molecular pharmaceutics, 2015).

The data set in a line: Pharmacokinetics of vancomycin after i.v. or pulmonary. Particulars: rabbits, 1 mg/kg i.v. bolus, plasma, LC/MS, non-compartmental, average ± S.D., n = 3; SD.

SMILES strings stand for the structures.

Take `CN[C@H](CC(C)C)C(=O)N[C@H]1C(=O)N[C@@H](CC(N)=O)C(=O)N[C@H]2C(=O)N[C@H]3C(=O)N[C@H](C(=O)N[C@H](C(=O)O)c4cc(O)cc(O)c4-c4cc3ccc4O)[C@H](O)c3ccc(c(Cl)c3)Oc3cc2cc(c3O[C@@H]2O[C@H](CO)[C@@H](O)[C@H](O)[C@H]2O[C@H]2C[C@](C)(N)[C@H](O)[C@H](C)O2)Oc2ccc(cc2Cl)[C@H]1O` [vancomycin]: the “AUC(0-∞)” value is 12135.34 ± 616.52 ng·h/mL, the AUClast is 12069.85 ± 638.15 ng·h/mL, the C0 was found to be 5347 ± 4927 ng/mL and the Clearance was found to be 1.376 ± 0.0708 mL/min/kg. Also, the Cmax stood at 3330 ± 1119 ng/mL, the Half-Life came out at 3.38 ± 0.43 h, the Tmax amounted to 0.67 ± 0.29 h and the “Volume of Dist.” value was determined as 0.40389 ± 0.06483 L/kg.

The term Cmax denotes the maximum level reached in the sampled fluid or tissue. Broadly, the Tmax is the time at which the peak concentration occurs.
